Test results: paper PMC10986487, “Epidrugs: alternative chemotherapy targeting Theileria annulata schizont stage parasites” (Microbiology Spectrum, 2024)
Where two headings read alike, the source gives them in different places.

Tests used:
[1] = test system: T. annulata-infected bovine cells; assay: Resazurin-based drug susceptibility assay, 2-fold serial dilutions, 48 hours; format: cell-based, Theileria annulata; conditions: 0.019 µM to 10 µM, read-out: IC50 against T. annulata-infected cells
Method: In this study, we conducted a screening of 148 compounds from the Cayman epigenetics library against the asexual schizont stage of T. annulata-infected bovine cells to assess their potential anti-theilerial activity (Fig. 1A). The initial screening involved testing the compounds at a concentration of 10 µM, with BPQ serving as the internal control. […] Subsequently, we performed drug susceptibility assays on the selected 27 compounds to determine their 50% inhibitory concentration (IC50) values against T. annulata-infected cells. To do this, 2-fold serial dilutions ranging from 0.019 µM to 10 µM were prepared, and the percentage of cell death was assessed after 48 hours using resazurin-based assays.
Fig 1 Screening of epigenetic inhibitors for potential anti-theilerial activity in T. annulata-infected cells. (A) List of compounds and their functional classes used in this study. (B) Inhibition (%) of the hits (n = 27) with anti-theilerial activity when screened in T. annulata-infected cells, where the cut-off (--) was set at 50% inhibition. […] (E) Flow cytometry-based detection of annexin V-positive T. annulata-infected cells upon drug treatment for detection of early apoptosis.

[2] = test system: Theileria annulata; set-up: method as in earlier work; conditions: ref 14 (Titus et al.); read-out: Concentration displaying anti-theilerial effects; cited from earlier work

Structure (SMILES) | IC50 [1] [µM] | IC50 ([1]; Theileria annulata) [µM] | IC50 [2] [µM]
CC1=CC(=O)c2c(O)cccc2C1=O [Plumbagin] | – | 8.13 | 0.009
CC1(C)C(=O)N=C2C1=C(O)C(=O)c1ccccc12 [BVT-948] | 2.58 | – | –
O=C(CCl)Nc1ccc(S(=O)(=O)c2ccc(NC(=O)CCl)cc2)cc1 [TCE-5003] | 3.68 | – | –

Now from value to compound, other results behind:

IC50 [1] [µM] | Structure (SMILES) | IC50 ([1]; Theileria annulata) [µM] | IC50 [2] [µM]
6.97 | COC(=O)/C=C/C(=O)N(O)CCCCNCc1ccc(COC(=O)Nc2cccc3ccccc23)cc1 [Methylstat] | – | –
2.18 | Cc1ccc(NC2=CC(=O)c3sc(C)nc3C2=O)cc1 [Ryuvidine] | – | –
6.02 | CC(/C=C/C(=O)NO)=C\[C@@H](C)C(=O)c1ccc(N(C)C)cc1 [Trichostatin A] | – | –
